In patent US4593090A, “Novel nitrosourea compounds, method for preparing same, and pharmaceutical composition containing same” (Gogo Kimura, priority 1981, dated 1986):

Experiments:
Leukemia L1210 = assay: Activity against Leukemia L1210, intraperitoneal, increase in life span of mice; assay type: in vivo, female mice (BDF1 family); settings: for ED (maximum ILS) / ED30: Mus musculus, L1210, ip, ip once a day for 5 successive days; for ED (maximum ILS): daily dosage giving maximum increase of life span, read-out: O.D. (optimum dosage); for ED30: daily dosage increasing average survival days by 30%, read-out: ILS30; for Survivors after 60 days / Max. ILS % / Therapeutic ratio TR: ip; for Survivors after 60 days: 6-membered group; for Max. ILS %: 60-day observation, versus control; for Therapeutic ratio TR: O.D./ILS30
Description: Tests were conducted in accordance with the method for measuring antitumor activity of National Cancer Center Tokyo (A, Hoshi et al, Farumashia 9 464 (1973)). Test compounds were each intraperitoneally (referred to as ip) or orally (referred to as op) administered once a day for 5 successive days to a 6-membered group of femal mice (BDF1 family, each weighing 20 to 23 g) 24 hours after 1×10^5 cells of Leukemia L1210 have been implantated into the abdominal cavities of the mice, and the effect was evaluated by comparing the survival days of treated groups with those of an untreated group of mice (control group) in 60-day observation. An increase percentage of life span (ILS%) was calculated from said average survival days compared with those of the control group. Further, therapeutic ratio (O.D./ILD30, referred to as T.R.) of each tested compound was calculated from the daily dosage of the compound necessary to increase said average survival days by 30% as compared with the control group (this dosage is referred to as ILS 30) and the daily dosage giving a maximum increase of life span to mice implantated with L1210 cells, namely an optimum dosage (referred to as O.D.). The results of five successive days intraperitoneal administrations of test compounds were shown in Tables I to III, and those of five successive oral administrations in Table IV.

[1] = Acute toxicity (LD50, Behrens-Karber method); assay type: in vivo, ICR mice; settings: mouse, in vivo, ip, mortality during 30 days
Description: Test compounds, dissolved or suspended in 0.5% aqueous CMC, were each intraperitoneally administered to ICR mice in a dose of 0.1 ml per 10 g body weight. LD50 (mg/kg) value of each test compound was calculated from the mortality of mice during 30 days by the Behrens-Karber method.

SMILES	ED (maximum ILS) (Leukemia L1210) [mg/kg]	ED30 (Leukemia L1210) [mg/kg]	Survivors after 60 days (Leukemia L1210)	Max. ILS % (Leukemia L1210) [%]	Therapeutic ratio TR (Leukemia L1210)	LD50 at 720 h [1] [mg/kg]
COc1ccc(CN(C[C@H]2O[C@H](OC3CCCCC3)[C@H](O)[C@@H](O)[C@H]2O)C(=O)N(CCCl)N=O)cc1 [Compound 104, 3-(p-methoxybenzyl)-3-(cyclohexyl α-D-galactopyranose-6-yl)-1-(2-chloroethyl)-1-nitrosourea]	200	6.61	3/6	> 325	30.3	630
O=NN(CCCl)C(=O)N(CCC1CCCC1)C1C(OC2CCCCC2)OC(CO)C(O)C1O [Compound 67, 3-(2-cyclopentylethyl)-3-(cyclohexyl α-D-glucopyranose-2-yl)-1-(2-chloroethyl)-1-nitrosourea]	200	7.5	3/6	> 355	28.6	650
CCCCO[C@H]1O[C@H](CO)[C@@H](O)[C@H](O)[C@H]1N(CCOCCO)C(=O)N(CCCl)N=O [Compound 58, 3-[2-(2-hydroxyethoxy)ethyl]-3-(n-butyl α-D-glucopyranose-2-yl)-1-(2-chloroethyl)-1-nitrosourea]	190	4.2	4/6	> 422	45.2	585
CCC(C)O[C@@H]1OC[C@H](O)[C@H](O)[C@H]1N(CCCOC)C(=O)N(CCCl)N=O (stereo partly drawn) [Compound 158, 3-(3-methoxy-n-propyl)-3-(sec-butyl α-L-arabinopyranose-2-yl)-1-(2-chloroethyl)-1-nitrosourea]	170	3.21	6/6	> 700	53.0	530
COCCN(C(=O)N(CCCl)N=O)[C@H]1[C@H](OC2CCCCC2)OC[C@H](O)[C@@H]1O [Compound 155, 3-(2-methoxyethyl)-3-(cyclohexyl α-L-arabinopyranose-2-yl)-1-(2-chloroethyl)-1-nitrosourea]	160	2.64	6/6	> 700	60.6	520
CC(C)CN(C[C@H]1O[C@@H](OC2CCCCC2)[C@H](O)[C@@H]1O)C(=O)N(CCCl)N=O [Compound 169, 3-isobutyl-3-(cyclohexyl β-D-ribofuranose-5-yl)-1-(2-chloroethyl)-1-nitrosourea]	180	3.9	4/6	> 420	46.2	550
CC(C)CN(C(=O)N(CCCl)N=O)C1C(OC2CCCCC2)OC(CO)C(O)C1O [Compound 73, 3-isobutyl-3-(cyclohexyl α-D-glucopyranose-2-yl)-1-(2-chloroethyl)-1-nitrosourea]	200	5.38	4/6	> 420	37.2	670
CC(C)(C)O[C@H]1O[C@H](CN(C(=O)N(CCCl)N=O)C2CCCCC2)[C@@H](O)[C@H](O)[C@H]1O [Compound 173, 3-cyclohexyl-3-(tert-butyl α-D-glucopyranose-6-yl)-1-(2-chloroethyl)-1-nitrosourea]	160	3.16	5/6	> 630	50.6	510
COc1cccc(CN(C[C@H]2O[C@H](OC3CCCCC3)[C@H](O)[C@@H](O)[C@@H]2O)C(=O)N(CCCl)N=O)c1OC [Compound 49, 3-(2,3-dimethoxybenzyl)-3-(cyclohexyl α-D-glucopyranose)-6-yl)-1-(2-chloroethyl-1-nitrosourea]	170	4.74	4/6	> 420	35.9	560
CC(C)N(C(=O)N(CCCl)N=O)[C@@H]1CO[C@H](OC2CCCCC2)[C@H](O)[C@H]1O [Compound 148, 3-isopropyl-3-(cyclohexyl α-D-xylopyranose-4-yl)-1-(2-chloroethyl)-1-nitrosourea]	160	3.81	4/6	> 425	42.0	480
C=C(C)CO[C@H]1O[C@H](CN(C(=O)N(CCCl)N=O)C(C)(C)C)[C@@H](O)[C@H](O)[C@H]1O [Compound 177, 3-tert-butyl-3-(2-methyl-2-propenyl α-D-glucopyranose-6-yl)-1-(2-chloroethyl)-1-nitrosourea]	180	2.75	6/6	> 700	65.4	550
CCCCO[C@H]1O[C@H](CN(CCC)C(=O)N(CCCl)N=O)[C@@H](O)[C@H](O)[C@H]1O [Compound 5, 3-n-propyl-3-(n-butyl α-D-glucopyranose-6-yl)-1-(2-chloroethyl)-1-nitrosourea]	100	2.6	6/6	> 700	38.5	325
CCOCCCO[C@H]1O[C@H](CN(CC(C)C)C(=O)N(CCCl)N=O)[C@@H](O)[C@H](O)[C@H]1O [Compound 32, 3-isobutyl-3-(3-ethoxy-n-propyl α-D-glucopyranose-6-yl)-1-(2-chloroethyl)-1-nitrosourea]	170	2.91	6/6	> 700	58.4	495
CC(C)CN(C(=O)N(CCCl)N=O)[C@@H]1CO[C@H](OC2CCCCC2)[C@H](O)[C@H]1O [Compound 151, 3-isobutyl-3-(cyclohexyl α-D-xylopyranose-4-yl)-1-(2-chloroethyl)-1-nitrosourea]	150	3.21	4/6	> 425	46.7	490
CC(C)CN(C[C@H]1O[C@H](OC2CCCCC2)[C@H](O)[C@@H](O)[C@@H]1O)C(=O)N(CCCl)N=O [Compound 36, 3-isobutyl-3-(cyclohexylα-D-glucopyranose-6-yl)-1-(2-chloroethyl)-1-nitrosourea]	180	3.69	6/6	> 700	48.8	580
O=NN(CCCl)C(=O)N(CCC1CCCC1)C[C@H]1O[C@H](OC2CCCCC2)[C@H](O)[C@@H](O)[C@@H]1O [Compound 45, 3-(2-cyclopentylethyl)-3-(cyclohexyl α-D-glucopyranose-6-yl)-1-(2-chloroethyl)-1-nitrosourea]	180	4.22	5/6	> 625	42.7	560
O=NN(CCCl)C(=O)N(CC1CCCCC1)[C@H]1[C@@H](O)[C@@H](CO)O[C@H](OC2CCCCC2)[C@@H]1O [Compound 128, 3-cyclohexylmethyl-3-(cyclohexyl α-D-galactopyranose-3-yl)-1-(2-chloroethyl)-1-nitrosourea]	200	5.99	3/6	> 350	33.4	650
CC(C)CO[C@H]1O[C@H](CO)[C@H](O)[C@H](O)[C@H]1N(CC(C)C)C(=O)N(CCCl)N=O [Compound 122, 3-isobutyl-3-(isobutyl α-D-galactopyranose-2-yl)-1-(2-chloroethyl)-1-nitrosourea]	200	6.85	3/6	> 355	29.2	715
CCCCOC1OC(CO)C(O)C(N(C(=O)N(CCCl)N=O)C(C)CC)C1O [Compound 81, 3-sec-butyl-3-(n-butyl β-D-glucopyranose-3-yl)-1-(2-chloroethyl)-1-nitrosourea]	200	5.8	3/6	> 360	34.5	580
O=NN(CCCl)C(=O)N(CC1CC1)C[C@H]1O[C@H](OC2CCCCC2)[C@H](O)[C@@H](O)[C@@H]1O [Compound 44, 3-cyclopropylmethyl-3-(cyclohexyl α-D-glucopyranose-6-yl)-1-(2-chloroethyl)-1-nitrosourea]	150	3.32	6/6	> 700	45.2	435
